# Laboratory results published in patent US20120020876A1, “HEDGEHOG PATHWAY INHIBITORS” (priority 2009, published 2012).
# “Also recorded” adds a separate entry of the source.
# Experiments:
# Assay type in all cases: in vivo, mouse
# KPC tumor blood vessels = test: Vessel patency: lectin perfusion with CD31 staining in KPC tumors; details: KPC mice treated 10 days; vs untreated or gemcitabine tumors
# Description: To assess the functional vasculature, biotin-conjugated Lycopersicon esculentum lectin (B1175-1 mg, Vector Laboratories) was resuspended in 425 μL PBS and mixed with 75 μL of 1 mg/mL Streptavidin-AlexaFluor 633 (S21375, Molecular Probes) (in sterile PBS). Prior to use, the lectin-avidin mixture was centrifuged 14,000 k on a microfuge for 10 minutes to remove any particulate. Fifteen minutes prior to euthanasia, 100 μl (0.4 mg total) of the conjugated lectin was administered as a slow intravenous infusion over 5 minutes, and the hemodynamics monitored closely to ensure that it was tolerated. For doxorubicin experiments, five minutes prior to euthanasia mice were also infused with a 20 mg/kg doxorubicin solution (D-1515.10 mg, in sterile saline, Sigma) over one minute.
# While under terminal anesthesia, mice were perfused with 4% paraformaldehyde in PBS, pH 7.4. Perfused tissues were harvested, fixed overnight in 4% paraformaldehyde in PBS, pH 7.4 and transferred to 70% ethanol. Tissues were embedded in paraffin, sectioned, rehydrated, and counterstained with DAPI. The lectin labeling experiments were reproduced independently in a second laboratory (SRH, KI).
# Mice were infused with 30 ml of 4% PFA pH 7.4 using a Harvard Apparatus PhD 2000 syringe pump at a rate of […]. […] Doxorubicin fluorescence was excited with a 488 nm laser, and emission was detected in a range from 520-620 nm. […]
# [1] = Compound A concentration in tissues by LC/MS; details: KPC mice; oral administration 40 mg/kg; 6 h after final dose
# Description: KPC mice harboring pancreatic tumors were treated with 40 mg/kg of Compound A by oral gavage, either singly, once daily for four days or at as part of a survival study. […] Six hours following the final dose, tissue samples were harvested, snap frozen in liquid nitrogen and stored at −80° C. Mice with abdominal ascites were excluded from analysis. Samples were analyzed by LC/MS, as described below.
# Calibration standard stock solutions were prepared by dissolving Compound A at a concentration of 2.5 mg/mL in DMSO. Internal standard stock solution was prepared by dissolving deuterated Compound A (Compound A-d^3) in DMSO for a final concentration of 2.5 mg/mL. Stock solutions were stored in aliquots at −80° C. until further use. […]
# Tumor samples were homogenized in 4 volumes of ACN:PBS buffer. […] Compound A concentrations for all tissues were preferentially determined using the 1:1 dilution unless any of the replicates for a given tissue required the higher dilution of 1/100 for accurate quantitation.
# Compound A concentrations in the samples were determined from the calibration curves generated in homogenization buffer. […]
# The data were acquired and processed using the software Analyst 1.4.1 (Applied Biosystems, Foster City, Calif.). For the standard curve samples, peak area ratios of Compound A to internal standard […] were calculated and plotted against the theoretical concentrations. […]
# KPC tumor vasculature = test: Mean vascular density and vascular-tumor distance (CD31 immunohistochemistry) in KPC tumors
# Description: Tissues were fixed in 10% formalin solution for 24 hours and transferred to 70% ethanol. Tissues were paraffin embedded, sectioned and rehydrated. For CD31 IHC, sections were unmasked in 10 mM EDTA, pH 8.0 in a pressure cooker. For all other antibodies, sections were unmasked in 10 mM citric acid in a pressure cooker. Endogenous peroxidases were quenched in 3% H2O2/PBS for 20 minutes. Remaining steps were carried out with Vectastain ABC kits appropriate to the species of primary antibody (Vector Labs, Burlingame, Calif.) with the following modification: blocking serum was supplemented with Protein Blocking Agent (Immunotech/BeckmanCoulter, Fullerton, Calif.) diluted 1:50. Antigens were developed with DAB Peroxidase Substrate (Vector Labs). […]
# Tissue sections were probed with anti-CD31 antibodies and counterstained with hematoxylin. Mean vascular density (MVD) was determined as the number of CD31 positive blood vessels per 40× field, over three random fields per tumor. The distance separating intratumoral blood vessels and neoplastic cells was determined for twenty randomly chosen blood vessels per tumor. Each intratumoral blood vessels was photographed at 1000× magnification, and the distance to the four nearest tumor cells was measured and the results averaged.
smiles,measurement,setting,value
CC1=C2C[C@H]3[C@@H](CC[C@@H]4C[C@H](NS(C)(=O)=O)CC[C@@]43C)[C@@H]2CC[C@@]2(C1)O[C@@H]1C[C@H](C)CN[C@H]1[C@H]2C.Cl [Compound A],vessel patency (percent of CD31 positive vessels perfused with lectin),KPC tumor blood vessels,increased vessel patency
same,accumulation of drug in PDA tissues,[1],measurable accumulation of drug in PDA tissues
same,mean vascular density (MVD),KPC tumor vasculature; KPC tumors after 8-12 days of treatment,higher MVD; also recorded: significantly elevated; also recorded: increased MVD
same,position of intratumoral blood vessels relative to tumor cells,"KPC tumor vasculature; KPC tumors, vs control and gemcitabine-treated specimens",positioned in close proximity to tumor cells
